# Measured values: PMC6733653 (Insect biochemistry and molecular biology, 2019)
# Where a name gives a salt, the structure may show the parent alone.
# What was measured:
# Assay in all cases: two-electrode voltage clamp, Xenopus oocytes, concentration-response
# Assay type in all cases: cell-based
# [1] = molecular target: T1, CquiOR5 (Culex quinquefasciatus, UniProt A0A3G1T0A9)
# T1 sequence (A0A3G1T0A9 1-393): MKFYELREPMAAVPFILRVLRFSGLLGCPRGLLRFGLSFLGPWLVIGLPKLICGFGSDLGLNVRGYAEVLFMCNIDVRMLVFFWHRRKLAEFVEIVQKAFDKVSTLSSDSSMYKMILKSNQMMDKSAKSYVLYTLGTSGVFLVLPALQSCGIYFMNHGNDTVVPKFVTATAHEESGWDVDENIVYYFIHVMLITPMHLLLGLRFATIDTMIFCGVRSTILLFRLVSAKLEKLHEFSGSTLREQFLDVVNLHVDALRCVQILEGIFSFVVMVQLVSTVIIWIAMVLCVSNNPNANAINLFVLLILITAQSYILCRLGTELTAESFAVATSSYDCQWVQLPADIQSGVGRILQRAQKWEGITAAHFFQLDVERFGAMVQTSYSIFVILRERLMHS
# [2] = molecular target: T2, CquiOR4 (Culex quinquefasciatus, UniProt A0A3G1T0B0)
# T2 sequence (A0A3G1T0B0 1-391): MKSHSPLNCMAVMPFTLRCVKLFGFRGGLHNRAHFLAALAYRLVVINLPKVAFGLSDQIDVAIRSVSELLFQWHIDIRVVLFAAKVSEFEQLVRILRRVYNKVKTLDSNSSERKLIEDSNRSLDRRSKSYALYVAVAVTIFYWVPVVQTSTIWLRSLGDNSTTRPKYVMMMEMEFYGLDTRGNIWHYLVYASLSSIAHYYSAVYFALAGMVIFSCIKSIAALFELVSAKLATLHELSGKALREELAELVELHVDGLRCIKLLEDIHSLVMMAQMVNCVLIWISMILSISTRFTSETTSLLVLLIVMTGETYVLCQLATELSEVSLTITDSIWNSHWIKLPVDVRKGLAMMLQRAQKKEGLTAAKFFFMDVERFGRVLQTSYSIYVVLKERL
# [3] = molecular target: T3, AaegOR15 (Aedes aegypti, UniProt A0A6B9QIR2)
# T3 sequence (A0A6B9QIR2 1-390): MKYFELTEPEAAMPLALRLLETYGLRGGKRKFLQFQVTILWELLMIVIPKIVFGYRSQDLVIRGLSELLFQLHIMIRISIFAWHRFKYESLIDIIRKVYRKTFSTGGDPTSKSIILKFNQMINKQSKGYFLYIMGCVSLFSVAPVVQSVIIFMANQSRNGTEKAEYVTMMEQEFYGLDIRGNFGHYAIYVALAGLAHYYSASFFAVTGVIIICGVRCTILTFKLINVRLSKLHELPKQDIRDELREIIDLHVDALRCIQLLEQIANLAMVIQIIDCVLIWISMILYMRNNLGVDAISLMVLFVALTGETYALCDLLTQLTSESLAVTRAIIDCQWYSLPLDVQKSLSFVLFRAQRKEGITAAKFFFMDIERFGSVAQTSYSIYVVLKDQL
# T3 sequence (Q178U6 1-478 partner): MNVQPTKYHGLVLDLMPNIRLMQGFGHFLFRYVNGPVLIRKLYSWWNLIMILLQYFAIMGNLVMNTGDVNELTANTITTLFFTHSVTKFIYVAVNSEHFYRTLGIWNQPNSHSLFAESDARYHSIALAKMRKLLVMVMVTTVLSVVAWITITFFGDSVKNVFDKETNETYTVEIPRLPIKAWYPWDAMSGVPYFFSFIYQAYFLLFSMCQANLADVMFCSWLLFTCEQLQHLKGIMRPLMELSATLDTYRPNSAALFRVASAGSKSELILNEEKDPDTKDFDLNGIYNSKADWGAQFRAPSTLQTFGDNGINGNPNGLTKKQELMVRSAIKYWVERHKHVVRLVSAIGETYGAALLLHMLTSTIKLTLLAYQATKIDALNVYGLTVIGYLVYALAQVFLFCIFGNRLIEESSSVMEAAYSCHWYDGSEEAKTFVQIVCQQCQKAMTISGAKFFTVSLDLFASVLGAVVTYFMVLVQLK
# [4] = molecular target: T2, CquiOR4; remark: listed apart in the source
Compound,"two-electrode voltage clamp, Xenopus oocytes, concentration-response [3]",other results
C=CC(C)(O)CCC=C(C)C (racemic) [linalool],–,EC50 [1]: 0.574 µM
OCCc1ccccc1 [2-phenylethanol],–,EC50 [2]: 0.028 µM
CCC(=O)OCCc1ccccc1 [phenethyl propionate],"AaegOR15/AaegOrco-expressing oocytes generated dose-dependent, robust currents when challenged with phenethyl propionate, phenethyl formate, and acetophenone","two-electrode voltage clamp, Xenopus oocytes, concentration-response [4]: 2-Phenylethanol, phenethyl formate, and phenethyl propionate were the best ligands for CquiOR4"
OCc1ccccc1 [benzyl alcohol],Concentration-dependent responses of AaegOR15·AaegOrco-expressing oocytes to four major odorants,–
CC(=O)c1ccccc1 [acetophenone],"AaegOR15/AaegOrco-expressing oocytes generated dose-dependent, robust currents when challenged with phenethyl propionate, phenethyl formate, and acetophenone",–
O=COCCc1ccccc1 [phenethyl formate],"AaegOR15/AaegOrco-expressing oocytes generated dose-dependent, robust currents when challenged with phenethyl propionate, phenethyl formate, and acetophenone",–
